Columns and labels:
Settings in all cases: incubation time: 72 h
BT-474 [1] = experiment: normalised response (% of control), CellTiter-Glo; higher = more viable cells (100 = DMSO, 0 = benzethonium chloride kill control)
In short: (§1)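 Two readouts were taken after 72 h: CellTox Green fluorescence (485/520 nm) first, then CellTiter-Glo luminescence after 10 min at room temperature. Breast cancer cell lines had been seeded as 20 µl suspension into 384-well plates holding compound at 5 concentrations in 10-fold steps across a compound-specific 10,000-fold range. Each value is a normalised signal at a single concentration, with plates scaled to 0.1 % DMSO (100) and a positive kill control (0).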

BT-549 [2] = experiment: as above
In short: as §1

CAL-120 [3] = experiment: as above
In short: as §1

CAL-148 [4] = experiment: as above
In short: as §1

CAL-51 [5] = experiment: as above
In short: as §1

CAL-85-1 [6] = experiment: as above
In short: as §1

DU-4475 [7] = experiment: as above
In short: as §1

HCC1143 [8] = experiment: as above
In short: as §1

HCC1599 [9] = experiment: as above
In short: as §1

HCC1937 [10] = experiment: as above
In short: as §1

HDQ-P1 [11] = experiment: as above
In short: as §1

Hs578T [12] = experiment: as above
In short: as §1

MCF-10A = experiment: as above
In short: as §1

MDA-MB-231 [13] = experiment: as above
In short: as §1

MDA-MB-436 [14] = experiment: as above
In short: as §1

MDA-MB-453 [15] = experiment: as above
In short: as §1

MDA-MB-468 [16] = experiment: as above
In short: as §1

MFM-223 [17] = experiment: as above
In short: as §1

SK-BR-3 [18] = experiment: as above
In short: as §1

BT-474 [19] = experiment: normalised viability (% of control), CellTiter-Blue; higher = more viable cells (100 = DMSO, 0 = benzethonium chloride kill control)
Procedure: (§2)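 DSRT, CellTiter-Blue viability, 72 h incubation. Signal is normalised to DMSO and benzethonium chloride controls. Value is the normalised response at dose 1.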

BT-549 [20] = experiment: as above
Procedure: as §2

CAL-120 [21] = experiment: as above
Procedure: as §2

CAL-148 [22] = experiment: as above
Procedure: as §2

CAL-51 [23] = experiment: as above
Procedure: as §2

CAL-85-1 [24] = experiment: as above
Procedure: as §2

DU-4475 [25] = experiment: as above
Procedure: as §2

HCC1143 [26] = experiment: as above
Procedure: as §2

HCC1599 [27] = experiment: as above
Procedure: as §2

HCC1937 [28] = experiment: as above
Procedure: as §2

HDQ-P1 [29] = experiment: as above
Procedure: as §2

Hs578T [30] = experiment: as above
Procedure: as §2

MDA-MB-231 [31] = experiment: as above
Procedure: as §2

MDA-MB-436 [32] = experiment: as above
Procedure: as §2

MDA-MB-453 [33] = experiment: as above
Procedure: as §2

MDA-MB-468 [34] = experiment: as above
Procedure: as §2

MFM-223 [35] = experiment: as above
Procedure: as §2

SK-BR-3 [36] = experiment: as above
Procedure: as §2

CAL-148 [37] = experiment: normalised viability (% of control), CellTiter-Blue; higher = more viable cells (about 100 = DMSO control)
Procedure: (§3)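 DSRT, CellTiter-Blue viability, 72 h incubation. Signal is normalised to DMSO and benzethonium chloride controls. Value is the normalised response at dose 8.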

CAL-51 [38] = experiment: as above
Procedure: as §3

CAL-85-1 [39] = experiment: as above
Procedure: as §3

DU-4475 [40] = experiment: as above
Procedure: as §3

HDQ-P1 [41] = experiment: as above
Procedure: as §3

MDA-MB-453 [42] = experiment: as above
Procedure: as §3

Compound	normalised response (BT-474 [1]) [%]	normalised response (BT-549 [2]) [%]	normalised viability (BT-474 [19]) [%]	normalised viability (BT-549 [20]) [%]	normalised viability (CAL-120 [21]) [%]	normalised viability (CAL-148 [22]) [%]	normalised viability (CAL-51 [23]) [%]	normalised viability (CAL-85-1 [24]) [%]	normalised viability (DU-4475 [25]) [%]	normalised viability (HCC1143 [26]) [%]	normalised viability (HCC1599 [27]) [%]	normalised viability (HCC1937 [28]) [%]	normalised viability (HDQ-P1 [29]) [%]	normalised viability (Hs578T [30]) [%]	normalised viability (MDA-MB-231 [31]) [%]	normalised viability (MDA-MB-436 [32]) [%]	normalised viability (MDA-MB-453 [33]) [%]	normalised viability (MDA-MB-468 [34]) [%]	normalised viability (MFM-223 [35]) [%]	normalised viability (SK-BR-3 [36]) [%]	other results
Nc1ccn([C@@H]2O[C@H](CO)[C@@H](O)C2(F)F)c(=O)n1 [Gemcitabine] (0.1 nM)	97	98.4	87	108	96.5	103	105	96.8	93.5	101	89.4	76.1	111	114	94.6	108	109	100	101	102	normalised response (CAL-120 [3]): 93.6%; normalised response (CAL-148 [4]): 96%; normalised response (CAL-51 [5]): 101%; normalised response (CAL-85-1 [6]): 94.2%; normalised response (DU-4475 [7]): 99.9%; normalised response (HCC1143 [8]): 92.6%; normalised response (HCC1599 [9]): 97.4%; normalised response (HCC1937 [10]): 95.8%; normalised response (HDQ-P1 [11]): 95.1%; normalised response (Hs578T [12]): 106%; normalised response (MCF-10A): 99.7%; normalised response (MDA-MB-231 [13]): 94.5%; normalised response (MDA-MB-436 [14]): 102%; normalised response (MDA-MB-453 [15]): 107%; normalised response (MDA-MB-468 [16]): 95.8%; normalised response (MFM-223 [17]): 94.5%; normalised response (SK-BR-3 [18]): 93.4%
CO[C@@]12[C@H](COC(N)=O)C3=C(C(=O)C(C)=C(N)C3=O)N1C[C@@H]1N[C@@H]12 [Mitomycin C] (1 nM)	92.3	105	86.7	87.3	93.9	109	110	96.3	104	98.8	94.8	106	118	134	87.4	96.9	102	94.3	91.1	90.3	normalised response (CAL-120 [3]): 94.3%; normalised response (CAL-148 [4]): 95.3%; normalised response (CAL-51 [5]): 82.6%; normalised response (CAL-85-1 [6]): 99.7%; normalised response (DU-4475 [7]): 95.1%; normalised response (HCC1143 [8]): 96%; normalised response (HCC1599 [9]): 72.6%; normalised response (HCC1937 [10]): 94.6%; normalised response (HDQ-P1 [11]): 98.8%; normalised response (Hs578T [12]): 101%; normalised response (MCF-10A): 93.2%; normalised response (MDA-MB-231 [13]): 95.1%; normalised response (MDA-MB-436 [14]): 82.4%; normalised response (MDA-MB-453 [15]): 97.5%; normalised response (MDA-MB-468 [16]): 90.4%; normalised response (MFM-223 [17]): 93.9%; normalised response (SK-BR-3 [18]): 100%
CCN(CC)CCCC(C)Nc1ccnc2cc(Cl)ccc12 (stereo not drawn) [Chloroquine] (0.099 nM)	–	–	100	107	85.9	97.1	90	87.6	111	99.2	96.9	89.7	112	101	112	111	107	108	102	91.9	–
COc1ccc(S(=O)(=O)Nc2cccnc2Nc2ccc(O)cc2)cc1 [ABT-751] (1 nM)	98.9	109	100	110	84.7	96.9	109	88.4	96.5	95.5	90	90.3	114	105	95.8	85.8	90.5	102	92.1	87.2	normalised response (CAL-120 [3]): 95.8%; normalised response (CAL-148 [4]): 97.6%; normalised response (CAL-51 [5]): 108%; normalised response (CAL-85-1 [6]): 94.6%; normalised response (DU-4475 [7]): 103%; normalised response (HCC1143 [8]): 96.1%; normalised response (HCC1599 [9]): 95.8%; normalised response (HCC1937 [10]): 96.5%; normalised response (HDQ-P1 [11]): 96.8%; normalised response (Hs578T [12]): 101%; normalised response (MCF-10A): 91.5%; normalised response (MDA-MB-231 [13]): 104%; normalised response (MDA-MB-436 [14]): 93%; normalised response (MDA-MB-453 [15]): 95.2%; normalised response (MDA-MB-468 [16]): 98.4%; normalised response (MFM-223 [17]): 93.9%; normalised response (SK-BR-3 [18]): 84.4%
CC[C@H](CO)Nc1nc(NCc2ccccc2)c2ncn(C(C)C)c2n1 [Roscovitine] (1 nM)	–	–	91	105	83.7	87.1	101	82.8	103	95.5	101	81.3	83.1	96.3	110	114	104	93.7	96.5	92.9	–
C=CCN(/C=C1/C(=O)O[C@H](COC)[C@@]2(C)C1=C(O)C(=O)C1=C2[C@H](OC(C)=O)C[C@]2(C)C(=O)CC[C@@H]12)CC=C [PX-866] (1 nM)	–	–	102	105	97.7	114	112	97	118	99.8	104	83.9	107	98.6	97.6	94.8	101	96.6	87.4	96.3	–
COc1c2occc2cc2ccc(=O)oc12 [Methoxsalen] (1 nM)	–	–	79.9	97.6	107	112	100	92.3	96.2	101	104	93.8	106	103	105	116	103	109	93.1	104	–
CN(Cc1cnc2nc(N)nc(N)c2n1)c1ccc(C(=O)N[C@@H](CCC(=O)O)C(=O)O)cc1 [Methotrexate] (1 nM)	–	–	101	92.2	90.5	110	106	95.9	114	95.6	93.6	84.6	114	130	93.5	109	101	93	99.9	88.7	–
COc1c2occc2cc2ccc(=O)oc12 [Methoxsalen] (3000 nM)	–	–	–	–	–	–	–	–	–	–	–	–	–	–	–	–	–	–	–	–	normalised viability (CAL-148 [37]): 91.4%; normalised viability (CAL-51 [38]): 112%; normalised viability (CAL-85-1 [39]): 96.2%; normalised viability (DU-4475 [40]): 94.6%; normalised viability (HDQ-P1 [41]): 118%; normalised viability (MDA-MB-453 [42]): 114%
Cc1cc(Nc2nc(N[C@@H](C)c3ncc(F)cn3)ncc2Cl)[nH]n1 [AZD1480] (300 nM)	–	–	–	–	–	–	–	–	–	–	–	–	–	–	–	–	–	–	–	–	normalised viability (CAL-148 [37]): 106%; normalised viability (CAL-51 [38]): 98.8%; normalised viability (CAL-85-1 [39]): 106%; normalised viability (DU-4475 [40]): 89.3%; normalised viability (HDQ-P1 [41]): 122%; normalised viability (MDA-MB-453 [42]): 94.2%

Reference: the supplement of paper PMC4862054
